Assay results as given in ChEMBL document CHEMBL1121758, “(-)-4-Hydroxymorphinanones: their synthesis and analgesic activity” (1981).
Calls of active or inactive are those of the source. No cut-off for these calls is given here.

Assays:
Rattus norvegicus [1] = assay: Agonist activity (administered subcutaneously) determined by rat tail flick test; type: functional; settings: sc
Mus musculus = species: Mus musculus; assay: Antinociceptive activity determined in acetic acid induced mouse writhing test; type: functional
Rattus norvegicus [2] = assay: Antagonist activity (administered subcutaneously) determined by rat tail flick test; type: functional; settings: sc
Rattus norvegicus [3] = assay: Antagonist activity (administered subcutaneously) determined by rat tail flick test; Inactive at 10 mg/kg; type: functional, organism-based; design: dose 10 mg/kg

CN1CC[C@]23c4c5ccc(O)c4O[C@H]2[C@@H](O)C=C[C@H]3[C@H]1C5.CN1CC[C@]23c4c5ccc(O)c4O[C@H]2[C@@H](O)C=C[C@H]3[C@H]1C5.O=S(=O)(O)O
ED50 (Rattus norvegicus [1]): 7.3 mg/kg | ED50 (Mus musculus): 0.8 mg/kg

CN1CCC23CC(=O)CCC2C1Cc1ccc(O)cc13 (centres undefined)
ED50 (Rattus norvegicus [1]): 20 mg/kg | ED50 (Mus musculus): 0.15 mg/kg

C=CCN1CC[C@]23c4c5ccc(O)c4O[C@H]2[C@@H](O)C=C[C@H]3[C@H]1C5 [NALORPHINE]
ED50 (Rattus norvegicus [2]): 0.86 mg/kg | ED50 (Mus musculus): 1.22 mg/kg

COc1cccc2c1C13CCN(C)C(C2)C1CCC(=O)C3 (centres undefined)
ED50 (Mus musculus): 0.21 mg/kg

O=C1CCC2C3Cc4cccc5c4C2(CCN3CC2CC2)C1O5 (centres undefined)
ED50 (Rattus norvegicus [2]): 12.5 mg/kg | ED50 (Mus musculus): 0.06 mg/kg

O=C1CCC2C3Cc4ccc(O)cc4C2(CCN3CC2CC2)C1 (centres undefined)
ED50 (Rattus norvegicus [2]): 2.3 mg/kg

O=C1CCC2C3Cc4cccc(O)c4C2(CCN3CC2CC2)C1 (centres undefined)
ED50 (Rattus norvegicus [3]): inactive | ED50 (Mus musculus): 0.64 mg/kg

CN1CCC23CC(=O)CCC2C1Cc1cccc(O)c13 (centres undefined)
ED50 (Rattus norvegicus [1]): 19.2 mg/kg | ED50 (Mus musculus): 0.18 mg/kg
